Target: Sodium-dependent noradrenaline transporter (Rattus norvegicus)
Assay: In vitro binding affinity against norepinephrine transporter using [3H]-nisoxetine as radioligand

Compound	Ki [µM]
Brc1ccc2c(c1)[C@H]1O[C@H](Cn3oc4ccc(CN5CCOCC5)cc43)C[C@H]1c1ccccc1O2 [8-((2S,3aS,12bS)-11-Bromo-2,3,3a,12b-tetrahydro-1,8-dioxa-dibenzo[e,h]azulen-2-ylmethyl)-3-morpholin-4-ylmethyl-7-oxa-8-aza-bicyclo[4.2.0]octa-1(6),2,4-triene]	3.11
Nc1ccc2on(C[C@@H]3C[C@H]4c5ccccc5Oc5ccc(Br)cc5[C@H]4O3)c2c1 [8-((2S,3aS,12bS)-11-Bromo-2,3,3a,12b-tetrahydro-1,8-dioxa-dibenzo[e,h]azulen-2-ylmethyl)-7-oxa-8-aza-bicyclo[4.2.0]octa-1(6),2,4-trien-3-ylamine]	0.62
CN(C)c1ccc2on(C[C@@H]3C[C@H]4c5ccccc5Oc5ccc(Br)cc5[C@H]4O3)c2c1 [[8-((2S,3aS,12bS)-11-Bromo-2,3,3a,12b-tetrahydro-1,8-dioxa-dibenzo[e,h]azulen-2-ylmethyl)-7-oxa-8-aza-bicyclo[4.2.0]octa-1(6),2,4-trien-3-yl]-dimethyl-amine]	2.25
